Data on four molecules can be found in patent US20120142609A1, “NON HUMAN ANIMAL MODELS FOR INCREASED RETINAL VASCULAR PERMEABILITY” (priority 2009, published 2012).

This assay has as its system Müller glial cells. Briefly: Osmotic Müller cell swelling in acutely isolated retinal slices under hypotonic challenge. It is filed as cell-based, mouse. The settings on record: for effect on osmotic swelling of Müller cells (FIG. 3C): hypotonic challenge. As for the experimental part:
Müller cell swelling: To determine volume changes of Müller glial cells evoked by hypotonic stress, the cross-sectional area of glial cell somata in the inner nuclear layer of retinal slices was measured. Acutely isolated slices (thickness, 1 mm) were prepared from untreated control eyes and from the detached retinal area of operated eyes from C57BL/6 and Dp71-null mice, placed in a perfusion chamber and loaded with the vital dye Mitotracker Orange (10 μM). This dye is selectively taken up by Müller glial cells whereas retinal neurons, astrocytes, and microglial cells remain unstained. The stock solution of the dye was prepared in dimethylsulfoxide and resolved in saline. The slices were examined with a confocal laser scanning microscope LSM 510 Meta (Zeiss, Oberkochen, Germany). Mitotracker Orange was excited at 543 nm, and emission was recorded with a 560 nm long-pass filter. To assure that the maximum soma areas were precisely recorded, the focal plane was continuously adjusted in the course of the experiments.
A gravity-fed system with multiple reservoirs was used to perfuse the recording chamber continuously with extracellular solution; the hypotonic solution and test substances were added by rapid change of the perfusate. The extracellular solution consisted of (in mM) […], 3 KCl, 2 CaCl2, 1 MgCl2, 10 HEPES, and 11 glucose, adjusted to pH 7.4 with Tris. The hypotonic solution (60% of control osmolarity) was made up by adding distilled water. BaCl2 (1 mM) was preincubated for 10 minutes in extracellular solution before application within hypotonic solution. Blocking substances were preincubated for 15 to 45 minutes, and adenosine was administered simultaneously with the hypotonic solution. Swelling experiments were performed at room temperature.
To determine the extent of glial soma swelling, the cross-sectional area of Mitotracker Orange-stained cell bodies in the inner nuclear layer of retinal slices was measured off-line using the image analysis software of the LSM. Bar diagrams display the mean (+SEM) cross-sectional area of cell somata that was measured after 4-minute perfusion with hypotonic solution, in percent of the soma area measured before osmotic challenge (100%).

Where [1] appears, read: control retina from Dp71-null mice.

With `O=C(CBr)c1ccc(Br)cc1` [4-bromophenacyl bromide], the “cross-sectional area of Müller cell somata after 4-minute perfusion with hypotonic solution, in percent of the soma area before osmotic challenge” value (Müller cells from Dp71-null mice, 300 μM, preincubated, hypotonic solution 60% of control osmolarity) is reported as 103.3±2.1%. For the same molecule, the “effect on osmotic swelling of Müller cells (FIG. 3C)” value (“effect on osmotic swelling” below) under setting [1] is “blocked the swelling”.
For `[Ba+2].[Cl-].[Cl-]` [Ba^2+, barium chloride], the “effect on Müller cell soma area under hypotonic challenge (FIG. 3B)” value was “no effect” under setting [1] and “induced a swelling” (control retina from wt mice). In addition, the “cross-sectional area of Müller cell somata after 4-minute perfusion with hypotonic solution, in percent of the soma area before osmotic challenge” value by setting is: (slices from control retinas of C57BL/6 (wt) mice, BaCl2 1 mM, 102.0±1.0% without Ba2+) 111.5±1.6%; (untreated Dp71-null mice, BaCl2 1 mM, 118.0±2.3% without Ba2+) 122.3+3.6%.
`Nc1ncnc2c1ncn2[C@@H]1O[C@H](CO)[C@@H](O)[C@H]1O` [adenosine]: the “effect on osmotic swelling” value under setting [1] is “blocked the swelling”. For the same molecule, the “cross-sectional area of Müller cell somata after 4-minute perfusion with hypotonic solution, in percent of the soma area before osmotic challenge” value (untreated retinas from Dp71-null mice, adenosine 10 μM applied with the hypotonic solution (60% of control osmolarity), 120.3±3.8% without adenosine) worked out at 103.2±2.2%.
With `COc1ccc2c(c1)c(CC(=O)O)c(C)n2C(=O)c1ccc(Cl)cc1` [indomethacin], the “cross-sectional area of Müller cell somata after 4-minute perfusion with hypotonic solution, in percent of the soma area before osmotic challenge” value (Müller cells from Dp71-null mice, 10 μM, preincubated, hypotonic solution 60% of control osmolarity) is 104.4±1.6%. The “effect on osmotic swelling” value under setting [1] was “blocked the swelling”.
